Laboratory results taken from patent US12187729B2, “Compounds having PDE9A inhibitory activity, and pharmaceutical uses thereof” (KOREA RESEARCH INSTITUTE OF CHEMICAL TECHNOLOGY, priority 2018, dated 2025).

What follows are compounds tested against PDE9A (Homo sapiens (Human), UniProt O76083) (assay: PDE9A inhibitory activity, fluorescence polarization assay (IMAP-FP screening express kit)). Details: enzyme PDE9A 5 ng/ml, Fl-cGMP substrate 100 nM, room temperature 1 hour.
Assay type: biochemical
Procedure: The inhibitory activity of the representative compounds according to the present invention against phosphodiesterase 9A was tested based on the polarization assay (IMAP-FP screening express kit) provided by MDS (MDS Analytical Technologies, Sunyvale, CA, USA). As a buffer solution, a reaction solution (a reaction solution containing 0.01% Tween 20 provided by MDS was diluted 5 times, then 5 mM DTT is added) and a polarization detection solution (binding solution A and B provided by MDS were mixed at a ratio of 3:1 and IMAP binding reagent 1/600 was added) were prepared. 100 μM of the substrate (Fl-cGMP substrate; MDS) and 3.6 μg/ml of the enzyme PDE9A (ab54113; abeam) were prepared. 3.6 μg/ml PDE9A and 100 μM substrate were diluted to 20 ng/ml (final reaction concentration: 5 ng/ml) and 400 nM (final reaction concentration: 100 nM), respectively. The buffer solution used for all dilution and preparation processes was 1× reaction solution with 1 mM DTT added, and the polarization detection solution was used to induce polarization at the end.
The prepared samples were dispensed on black microplates (Multiwell 384 well plates, #3573, Corning Life Sciences, Lowell, MA, USA) using a 16-channel pipette (multi 16-channel, Finnpipette, Thermo Scientific, Essex, UK). The total reaction volume per well is 20 μl. At this time, 10 μl of 2% DMSO, 5 μl of substrate solution, and 5 μl of reaction solution were used as a negative control, and 10 μl of 2% DMSO, 5 μl of substrate solution, and 5 μl of PDE9A solution were used as a positive control. As the experimental group, 10 μl of the compound prepared in Example, 5 μl of the substrate solution, and 5 μl of the PDE9A solution were used. After pretreatment between the compound and the enzyme was performed for about […] before the enzyme-substrate reaction, 5 μl of cGMP was added to induce the enzyme reaction. During the reaction, each compound, enzyme, and substrate occupied 50%, 25%, and 25% of the total volume, respectively, and they were prepared at high concentrations of 2, 4, and 4 times, respectively, immediately before addition. After the enzymatic reaction, it was shaken lightly for 1 minute and the enzyme reaction was induced at room temperature for 1 hour. Then, 60 μl of a polarization detection solution prepared in advance was added to induce polarization.
Nanoparticles composed of trivalent metal ions are mixed in the fluorescence detection solution, which combines with phosphoric acid expose by enzymatic reaction to increase the molecular weight and induce polarization. After leaving for 2 hours at room temperature, the polarization (Fluorescence Polarization, FP) value was measured using a multilabel counter (Envision, PerkinElmer, Turku, Finland) (emission wavelength: P-535 nm, S-535 nm, excitation wavelength: 480 nm), and the result was expressed as an IC50 value, which is the concentration of the compound that inhibited PDE9A by 50% in vitro (Table 2).

Sequence of PDE9A (O76083 whole entry): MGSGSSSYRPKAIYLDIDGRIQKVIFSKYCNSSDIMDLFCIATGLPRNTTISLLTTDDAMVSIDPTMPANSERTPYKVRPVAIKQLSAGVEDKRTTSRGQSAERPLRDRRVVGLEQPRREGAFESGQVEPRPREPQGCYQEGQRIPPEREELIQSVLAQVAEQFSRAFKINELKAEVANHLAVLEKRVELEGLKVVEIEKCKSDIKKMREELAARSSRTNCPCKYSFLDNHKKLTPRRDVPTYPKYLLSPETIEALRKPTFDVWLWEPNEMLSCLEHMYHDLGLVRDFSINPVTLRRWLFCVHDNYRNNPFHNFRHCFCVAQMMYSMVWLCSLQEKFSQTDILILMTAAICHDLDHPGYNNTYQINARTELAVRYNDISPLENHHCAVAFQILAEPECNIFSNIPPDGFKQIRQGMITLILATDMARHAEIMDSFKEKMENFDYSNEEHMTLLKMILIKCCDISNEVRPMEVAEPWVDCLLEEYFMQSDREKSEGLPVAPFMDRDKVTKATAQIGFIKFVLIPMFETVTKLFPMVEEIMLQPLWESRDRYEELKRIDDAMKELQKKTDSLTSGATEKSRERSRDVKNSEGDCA

**Q.** How did the IC50 turn out when `O=C(CSc1nc2c(cnn2C2CCSCC2)c(=O)[nH]1)Nc1nnc(Br)s1` [Example 32, N-(5-bromo-1,3,4-thiadiazol-2-yl)-2-((4-oxo-1-(tetrahydro-2H-thiopyran-4-yl)-4,5-dihydro-1H-pyrazolo[3,4-d]pyrimidin-6-yl)thio)acetamide] was run?
**A.** 0.6 nM

**Q.** How did the IC50 turn out when `O=C(CSc1nc2c(cnn2C2CCOCC2)c(=O)[nH]1)Nc1nnc(Br)s1` [Example 33, N-(5-bromo-1,3,4-thiadiazol-2-yl)-2-((4-oxo-1-(tetrahydro-2H-pyran-4-yl)-4,5-dihydro-1H-pyrazolo[3,4-d]pyrimidin-6-yl)thio)acetamide] was run?
**A.** 0.4 nM

**Q.** How did the IC50 turn out when `CCSc1nnc(NC(=O)CSc2nc3c(cnn3C3CCCCC3)c(=O)[nH]2)s1` [Example 34, N-(5-(ethylthio)-1,3,4-thiadiazol-2-yl)-2-((4-oxo-1-cyclohexyl-4,5-dihydro-1H-pyrazolo[3,4-d]pyrimidin-6-yl)thio)acetamide] was run?
**A.** 1 nM

**Q.** How did the IC50 turn out when `O=C(CSc1nc2c(cnn2C2CCCCC2)c(=O)[nH]1)Nc1nnc(Br)s1` [Example 35, N-(5-bromo-1,3,4-thiadiazol-2-yl)-2-((4-oxo-1-cyclohexyl-4,5-dihydro-1H-pyrazolo[3,4-d]pyrimidin-6-yl)thio)acetamide] was run?
**A.** 1 nM

**Q.** `O=C(CSc1nc2c(cnn2C2CCOCC2)c(=O)[nH]1)Nc1nnc(Cl)s1` [Example 36, N-(5-chloro-1,3,4-thiadiazol-2-yl)-2-((4-oxo-1-(tetrahydro-2H-pyran-4-yl)-4,5-dihydro-1H-pyrazolo[3,4-d]pyrimidin-6-yl)thio)acetamide] was tested. Which IC50 did it give?
**A.** 0.7 nM

**Q.** Which IC50 does the source give for `CCSc1nnc(NC(=O)CSc2nc3c(cnn3C(C)C)c(=O)[nH]2)s1` [Example 37, N-(5-(ethylthio)-1,3,4-thiadiazol-2-yl)-2-((1-isopropyl-4-oxo-4,5-dihydro-1H-pyrazolo[3,4-d]pyrimidin-6-yl)thio)acetamide] here?
**A.** 1 nM

**Q.** `CC(C)n1ncc2c(=O)[nH]c(SCC(=O)Nc3nnc(Br)s3)nc21` [Example 38, N-(5-bromo-1,3,4-thiadiazol-2-yl)-2-((1-isopropyl-4-oxo-4,5-dihydro-1H-pyrazolo[3,4-d]pyrimidin-6-yl)thio)acetamide] was tested. Which IC50 did it give?
**A.** 3 nM

**Q.** With `O=C(CSc1nc2c(cnn2C2CCSCC2)c(=O)[nH]1)Nc1nnc(Cl)s1` [Example 39, N-(5-chloro-1,3,4-thiadiazol-2-yl)-2-((4-oxo-1-(tetrahydro-2H-thiopyran-4-yl)-4,5-dihydro-1H-pyrazolo[3,4-d]pyrimidin-6-yl)thio)acetamide] as the compound, how does the IC50 read?
**A.** 1 nM

**Q.** Which IC50 does the source give for `CCSc1nnc(NC(=O)CSc2nc3c(cnn3C3CC3)c(=O)[nH]2)s1` [Example 40, N-(5-(ethylthio)-1,3,4-thiadiazol-2-yl)-2-((1-cyclopropyl-4-oxo-4,5-dihydro-1H-pyrazolo[3,4-d]pyrimidin-6-yl)thio)acetamide] here?
**A.** 39 nM

**Q.** With `O=C(CSc1nc2c(cnn2C2CC2)c(=O)[nH]1)Nc1nnc(Br)s1` [Example 41, N-(5-bromo-1,3,4-thiadiazol-2-yl)-2-((1-cyclopropyl-4-oxo-4,5-dihydro-1H-pyrazolo[3,4-d]pyrimidin-6-yl)thio)acetamide] as the compound, how does the IC50 read?
**A.** 28 nM

**Q.** Which IC50 does the source give for `O=C(CSc1nc2c(cnn2C2CCCCC2)c(=O)[nH]1)Nc1nnc(Cl)s1` [Example 42, N-(5-chloro-1,3,4-thiadiazol-2-yl)-2-((4-oxo-1-cyclohexyl-4,5-dihydro-1H-pyrazolo[3,4-d]pyrimidin-6-yl)thio)acetamide] here?
**A.** 1 nM

**Q.** Which IC50 does the source give for `CC(C)n1ncc2c(=O)[nH]c(SCC(=O)Nc3nnc(Cl)s3)nc21` [Example 43, N-(5-chloro-1,3,4-thiadiazol-2-yl)-2-((1-isopropyl-4-oxo-4.5-dihydro-1H-pyrazolo[3,4-d]pyrimidin-6-yl)thio)acetamide] here?
**A.** 3 nM

**Q.** For `O=C(CSc1nc2c(cnn2C2CC2)c(=O)[nH]1)Nc1nnc(Cl)s1` [Example 44, N-(5-chloro-1,3,4-thiadiazol-2-yl)-2-((1-cyclopropyl-4-oxo-4,5-dihydro-1H-pyrazolo[3,4-d]pyrimidin-6-yl)thio)acetamide], which IC50 is on record?
**A.** 36 nM

**Q.** For `CCSc1nnc(NC(=O)C(C)Sc2nc3c(cnn3C3CCOCC3)c(=O)[nH]2)s1` (stereo not shown) [Example 45, N-(5-(ethylthio)-1,3,4-thiadiazol-2-yl)-2-((4-oxo-1-(tetrahydro-2H-pyran-4-yl)-4,5-dihydro-1H-pyrazolo[3,4-d]pyrimidin-6-yl)thio)propanamide], which IC50 is on record?
**A.** 0.1 nM

**Q.** With `CC(Sc1nc2c(cnn2C2CCOCC2)c(=O)[nH]1)C(=O)Nc1nnc(Br)s1` (stereo not shown) [Example 46, N-(5-bromo-1,3,4-thiadiazol-2-yl)-2-((4-oxo-1-(tetrahydro-2H-pyran-4-yl)-4,5-dihydro-1H-pyrazolo[3,4-d]pyrimidin-6-yl)thio)propanamide] as the compound, how does the IC50 read?
**A.** 0.2 nM

**Q.** With `CC(Sc1nc2c(cnn2C2CCOCC2)c(=O)[nH]1)C(=O)Nc1nnc(Cl)s1` (stereo not shown) [Example 47, N-(5-chloro-1,3,4-thiadiazol-2-yl)-2-((4-oxo-1-(tetrahydro-2H-pyran-4-yl)-4,5-dihydro-1H-pyrazolo[3,4-d]pyrimidin-6-yl)thio)propanamide] as the compound, how does the IC50 read?
**A.** 0.1 nM

**Q.** Which IC50 does the source give for `CC(Sc1nc2c(cnn2C2CCC(F)(F)CC2)c(=O)[nH]1)C(=O)Nc1nnc(Cl)s1` (stereo not shown) [Example 48, N-(5-chloro-1,3,4-thiadiazol-2-yl)-2-((1-(4,4-difluorocyclohexyl)-4-oxo-4,5-dihydro-1H-pyrazolo[3,4-d]pyrimidin-6-yl)thio)propanamide] here?
**A.** 0.3 nM

**Q.** For “N-(5-(isopropylthio)-1,3,4-thiadiazol-2-yl)-2-((4-oxo-1-phenyl-4,5-dihydro-1H-pyrazolo[3,4-d]pyrimidin-6-yl)thio)acetamide [Example 14]”, which IC50 is on record?
**A.** 9 nM

**Q.** Which IC50 does the source give for “N-(5-(methylthio)-1,3,4-thiadiazol-2-yl)-2-((4-oxo-1-phenyl-4,5-dihydro-1H-pyrazolo[3,4-d]pyrimidin-6-yl)thio)acetamide [Example 13]” here?
**A.** 29 nM
